Test results published in patent US7674813B2, “Heterocyclic sulfonamide inhibitors of beta amyloid production containing an azole” (Wyeth, priority 2004, dated 2010).

Legend:
beta amyloid protein = settings: in vivo after oral administration; cited from earlier work
[1] = test system: amyloid precursor protein (APP) proteolysis; experiment: Repressor Release Assay (RRA); format: cell-based; parameters: key to RRA data (footnote symbols): **: Inactive due to toxicity; however, this compound, at 3-4 μM, reduces Aβ levels by 50% in CHO cells transfected with human APP695 as measured by ELISA without exhibiting toxicity.; ***: Inactive; however, this compound, at 1-4 μM, reduces Aβ levels by 50% in CHO cells transfected with human APP695 as measured by ELISA without exhibiting toxicity; settings: for fold induction at 20 µg/mL: Cricetulus griseus, CHO-K1, all compounds tested at 20 μg/mL, luciferase activity over diluent control, read-out: RRA data (Fold increase of APPI)
Procedure: The beta amyloid inhibitory activity of many of the compounds of the present invention has been determined using the Repressor Release Assay (RRA). See, Table 3 below. A compound is considered active in RRA if it leads to at least a 1.5 fold increase in luciferase activity at 20 μg/mL and is non-toxic.
The compound is considered active in RRA if it leads to at least a 1.5 fold increase in APPI as measured by an increase in luciferase activity at 20 μg/mL and is non-toxic. Shuey, D. J., Sheiffele, P., Jones, D., Cockett, M. I., and Quinet, E. M. (1999) Repressor release: a useful tool for monitoring amyloid precursor protein (APP) proteolysis in mammalian cells. Society for Neuroscience Abstracts, Vol. 25, 29th Annual Meeting of Society for Neuroscience, Miami Beach, Fla., Oct. 23-28, 1999.
CHO—K1 cells are cultured in whole DMEM media (DMEM—High Glucose with 10% fetal bovine serum, 1% Non-essential Amino Acids, and 1% Penicillin-Streptomycin) at 37° C. with 5% CO2. Two million cells are plated into 10-cm dishes 24 hrs prior to transfection.
Transient transfections are completed as recommended by Gibco BRL using their Lipofectamine Plus system. First, 6 μg of pRSVO-luc and 6 μg of APP-lacI construct DNA are added to 460 μL Opti-Mem transfection media and incubated with 30 μL Plus reagent for 15 minutes. Then, a lipid mixture of 40 μL Lipofectamine reagent and 460 μL Opti-Mem transfection media is incubated with the DNA-Plus reagent mixture for 15 minutes. During the DNA-lipid incubation, the CHO—K1 cells are washed once and covered in 5.0 mL DMEM media without Penicillin-Streptomycin. The DNA-lipid preparation is then layered onto these cells and incubated at 37° C. overnight.
One and one half million transfected cells per well (100 μL total volume) are plated into sterile, opaque Packard 96-well Cultur-Plates in clear DMEM whole media (DMEM—without phenol red) and incubated at 37° C. with 5% CO2 for 3-5 hours.
Compounds are diluted using two different protocols; one protocol is used for compounds supplied neat (weighed powder in vial) and the other protocol is used for compounds supplied in solution (20 mM in DMSO in 96-well plates). For both protocols, 25 mM Hepes and 25 mM Hepes/1% DMSO are prepared fresh to be used as diluent. The Hepes/DMSO is used as the diluent control on all experimental plates.
The following Table 1 depicts the steps for compound dilution (the last step is the addition of compound to cells/media in tissue culture plate):
Because some compounds arrive in 96-well format at 20 mM, the following Table 2 represents the protocol for their dilution (an average molecular weight of these compounds was used to calculate these dilutions and as above, the last step is the addition of compound to cells/media in tissue culture plate):
Once compounds are diluted, they are applied in duplicate on cells in tissue culture plates (prepared above). Cells are incubated with compound at 37° C. with 5% CO2 for an additional 36-48 hours.
Luciferase assays (LucLite reagent, Packard) are performed and are read on a Packard TopCount instrument. Media is removed from each 96-well plate and replaced with 100 μL PBS per well (with Mg^2+ and Ca^2+). An equal volume (100 μL) of the LucLite lysis/substrate buffer is added to each well and the plates are sealed and mixed in the dark on a rotary shaker for 15-30 minutes at room temperature. Luciferase readings are then taken on the TopCount instrument. Measurements are expressed as relative light units (RLU) and are calculated and analyzed in MS Excel as follows:
Fold Increase: amount of luciferase activity (measured in relative light units) over diluent control.
SEM: standard error of the mean for fold increase.
Activity: A compound is considered active if it results in at least a 1.5 fold increase in luciferase activity at 20 μg/mL.
Toxicity: determined by loss of signal (<0.75 fold increase).

beta amyloid 42 = experiment: Aβ40/42 ELISA Assay (Aβ42); format: cell-based; settings: CHO cells carrying the APP-REP-NL plasmid, 22 hours, sandwich ELISA; for EC50: Cricetulus griseus
Procedure: (§1) Compounds are diluted from DMSO stocks to 2 μM and below in a cell culture medium. Compounds are then applied to CHO cells carrying the APP-REP-NL plasmid [Sudhir et. al, J. Biolog. Chem. 267:25602-25608 (1992)] for a period of 22 hours. After the conditioning period, medium is collected, diluted in assay buffer containing protein, and samples, controls, and synthetic peptide standards are incubated on a prepared ELISA plate. Using a sandwich ELISA with antibodies specifically directed against the carboxyl terminus of beta amyloid 40 or 42 (analogous to the method reported by Haugabook et al., J. Neurosci. Methods 108:171-179 (2001) but using goat anti-mouse IgG1 (source: Southern Biotech) as the anchor, 6E10 as the capture antibody (Source: SENETEK), rabbit antiAβ40 and antiAβ42 (source: QCB) and APL-donkey anti-rabbit IgG (H+L, source: Southern Biotech) as the detection antibody), the effect of the compound treatment on the cellular production of extracellular beta amyloid is quantified. Cells treated with compound are subsequently incubated in cell culture medium containing MTS-formazan. After a short incubation period, MTS/medium containing plates are read in a spectrophotometer to determine the extent to which compound toxicity affected the cell's metabolism and ability to synthesize beta amyloid.
(§2) A. Test Samples: compound samples are supplied as 20 mM stock solutions in a 100% DMSO solution.
(§3) B. APP-REP-NL cells: Qualified cell lines are carried from week to week using 1:100 dilutions and are cultured in DMEM supplemented with 1× antibiotic/antimycotic, 200 ug/ml of G418 antibiotic, and 10% certified fetal calf serum. Cells are also banked in liquid nitrogen. Periodically, beta amyloid production is assessed, and cells are either kept in culture or replaced with progenitors at full expression.
(§4) C. Antibodies: From certified lots that have already been qualified in this assay. Antibodies are stored in small frozen aliquots at −80° C. that are thawed and used.
(§5) A compound is considered active if it has an EC50 for Aβ40 reduction of <100 μM and no toxicity at doses in the vicinity of the EC50.

beta amyloid 40 = experiment: Aβ40/42 ELISA Assay (Aβ40); format: cell-based; settings: Cricetulus griseus; CHO cells carrying the APP-REP-NL plasmid, 22 hours, sandwich ELISA
Procedure: as §1, §2, §3, §4, §5

melting point [°C]	EC50 (beta amyloid 42) [µM]	EC50 (beta amyloid 40) [µM]	SMILES	beta amyloid protein levels in mice brains (beta amyloid protein)	fold increase in luciferase activity ([1]; at 20 μg/mL)	fold induction at 20 µg/mL ([1]; transfected CHO-K1 cells)	RRA data (footnote symbols) ([1]; tested at 20 μg/mL, transfected CHO-K1 cells)	Effect on Aβ42 production (beta amyloid 42)
123 to 124	90	42.5	CC(NS(=O)(=O)c1ccc(Cl)s1)c1ncnn1Cc1ccccc1 (stereo not drawn) [Example 25, N-[1-(1-Benzyl-1H-1,2,4-triazol-5-yl)ethyl]-5-chlorothiophene-2-sulfonamide]	–	–	6.6	–	–
116 to 117	15.5	9.6	Cc1ccc(Cn2ncnc2C(C)NS(=O)(=O)c2ccc(Cl)s2)cc1 (stereo not drawn) [Example 26, 5-Chloro-N-{1-[1-(4-methylbenzyl)-1H-1,2,4-triazol-5-yl]ethyl}thiophene-2-sulfonamide]	–	–	5.6	–	–
103 to 104	6.2	2.7	CCC(CC)C(NS(=O)(=O)c1ccc(Cl)s1)c1ncnn1Cc1ccc(C)cc1 (stereo not drawn) [Example 27, 5-Chloro-N-{2-ethyl-1-[1-(4-methylbenzyl)-1H-1,2,4-triazol-5-yl]butyl}thiophene-2-sulfonamide]	–	–	13	–	–
102 to 103	–	26.7	CC(C)C(NS(=O)(=O)c1ccc(Cl)s1)c1cccn1Cc1ccccc1 (stereo not drawn) [Example 31, N-[1-(1-Benzyl-1H-pyrrol-2-yl)-2-methylpropyl]-5-chlorothiophene-2-sulfonamide]	–	–	5.3	–	increase
125.8 to 127.6	–	70.1	CCC(CC)C(c1ccnn1-c1ccccc1)N(C)S(=O)(=O)c1ccc(Cl)s1 (stereo not drawn) [Example 46, 5-Chloro-N-[2-ethyl-1-(1-phenyl-1H-pyrazol-5-yl)butyl]-N-methylthiophene-2-sulfonamide]	–	–	–	–	increase
102.1 to 104.1	–	61.2	CCC(CC)C(c1ccnn1-c1ccccc1)N(C)S(=O)(=O)c1ccc(Cl)c(Cl)c1 (stereo not drawn) [Example 47, 3,4-Dichloro-N-[2-ethyl-1-(1-phenyl-1H-pyrazol-5-yl)butyl]-N-methylbenzenesulfonamide]	–	–	–	–	increase
115.6 to 118	–	65.1	CCC(CC)C(c1ccnn1-c1ccccc1)N(C)S(=O)(=O)c1ccc(Br)s1 (stereo not drawn) [Example 48, 5-Bromo-N-[2-ethyl-1-(1-phenyl-1H-pyrazol-5-yl)butyl]-N-methylthiophene-2-sulfonamide]	–	–	–	–	increase

Continued, compound first:

SMILES	melting point [°C]	EC50 (beta amyloid 42) [µM]	EC50 (beta amyloid 40) [µM]	beta amyloid protein levels in mice brains (beta amyloid protein)	fold increase in luciferase activity ([1]; at 20 μg/mL)	fold induction at 20 µg/mL ([1]; transfected CHO-K1 cells)	RRA data (footnote symbols) ([1]; tested at 20 μg/mL, transfected CHO-K1 cells)	Effect on Aβ42 production (beta amyloid 42)
C[C@H](NC(=O)Cc1cc(F)cc(F)c1)C(=O)N[C@H](C(=O)OC(C)(C)C)c1ccccc1 [DAPT, reference compound]	–	–	–	reduce beta amyloid protein levels	18.5-28.1 fold increase	–	–	–
CCC(CC)C(NS(=O)(=O)c1ccc(Cl)s1)c1ccnn1Cc1ccc(O)cc1 (stereo not drawn) [Example 8, 5-Chloro-N-{2-ethyl-1-[1-(4-hydroxybenzyl)-1H-pyrazol-5-yl]butyl}thiophene-2-sulfonamide]	90 to 92	–	–	–	–	4.5	–	–
CCC(CC)C(NS(=O)(=O)c1ccc(Cl)s1)c1ccnn1S(=O)(=O)c1ccc(C)cc1 (stereo not drawn) [Example 9, 5-Chloro-N-(2-ethyl-1-{1-[(4-methylphenyl)sulfonyl]-1H-pyrazol-5-yl}butyl)thiophene-2-sulfonamide]	146 to 148	4.5	3	–	–	–	***	–
CCC(CC)C(NS(=O)(=O)c1ccc(Cl)s1)c1ncnn1Cc1ccc(OC)cc1 (stereo not drawn) [Example 21, 5-Chloro-N-{2-ethyl-1-[1-(4-methoxybenzyl)-1H-1,2,4-triazol-5-yl]butyl}thiophene-2-sulfonamide]	136 to 137	3.1	1.4	–	–	10.8	–	–
CC(C)C(NS(=O)(=O)c1ccc(Cl)s1)c1ncnn1Cc1ccccc1 (stereo not drawn) [Example 23, N-[1-(1-Benzyl-1H-1,2,4-triazol-5-yl)-2-methylpropyl]-5-chlorothiophene-2-sulfonamide]	138 to 139	13.2	5.2	–	–	1.8	–	–
Cc1ccc(Cn2ncnc2C(NS(=O)(=O)c2ccc(Cl)s2)C(C)C)cc1 (stereo not drawn) [Example 24, 5-Chloro-N-{2-methyl-1-[1-(4-methylbenzyl)-1H-1,2,4-triazol-5-yl]propyl}thiophene-2-sulfonamide]	124 to 125	11	6	–	–	1.8	–	–
